Source: patent publication US11155567B2, “Sting agonist compounds and methods of use” (Mersana Therapeutics, Inc., priority 2019, dated 2021)

Biological target: T1, Human STING (Homo sapiens, UniProt Q86WV6, G230A/H232R/R293Q/R71H)
T1 construct: host or cells: THP1-Dual cells, digitonin-permeabilized
Assay: Activation of human STING signaling in permeabilized THP1 cells, IRF3 induction
Type: cell-based
Conditions: THP1-Dual cells permeabilized with digitonin buffer 30 minutes on ice, then 24 h in RPMI media
Method: To evaluate IRF3 reporter levels, cell culture supernatant (20 μl) from each incubated sample was added to QUANTI-Luc™ assay solution (Invivogen, 50 μl), and the luminescence was measured with a SpectraMax M3 spectrophotometer (Molecular Devices).
4×10^5 THP1-Dual™ cells (NF-κB-SEAP and IRF-Lucia luciferase Reporter Monocytes, Invivogen) were incubated with test Compounds in a 5-fold titration steps from […] in permeabilized buffer (50 mM HEPES pH 7.0, 100 mM KCl, 3 mM MgCl2, 85 mM sucrose, 0.2% BSA, 1 mM ATP, 0.1 mM GTP, 0.1 mM TTP, 1 μg/ml digitonin) for 30 minutes on ice. Cells were then washed and incubated in a fresh RPMI media with 10% FBS at 37° C. with 5% CO2 for 24 h. Cell culture supernatants from each sample were collected and NFkB and IRF3 were evaluated as above. Table 3 provides the results for IRF3 induction (“A” means <1 μM; “B” means ≥1 μM and <50 μM; “C” means ≥50 μM).

T1 sequence (Q86WV6 whole entry R71H/G230A/H232R/R293Q): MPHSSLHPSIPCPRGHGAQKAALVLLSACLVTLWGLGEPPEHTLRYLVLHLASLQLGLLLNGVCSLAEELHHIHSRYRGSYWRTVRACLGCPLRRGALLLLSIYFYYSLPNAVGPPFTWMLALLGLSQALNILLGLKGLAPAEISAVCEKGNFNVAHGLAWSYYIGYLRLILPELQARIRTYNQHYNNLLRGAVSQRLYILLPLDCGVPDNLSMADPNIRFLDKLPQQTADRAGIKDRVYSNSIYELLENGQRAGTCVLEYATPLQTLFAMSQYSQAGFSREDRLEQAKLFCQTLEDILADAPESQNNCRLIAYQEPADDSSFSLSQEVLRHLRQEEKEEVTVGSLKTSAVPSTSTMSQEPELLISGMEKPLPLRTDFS

| Structure (SMILES) | EC50 [µM] |
| --- | --- |
| CCn1nc(C)cc1C(=O)Nc1nc2cc(C(N)=O)cnc2n1C/C=C/Cn1c(NC(=O)c2oc(C)nc2C)nc2cc(C(N)=O)cc(OCCCO)c21 [Compound 113] | 1 to 50 |
| CCn1nc(C)cc1C(=O)Nc1nc2cc(CN)cnc2n1C/C=C/Cn1c(NC(=O)c2cc(C)nn2CC)nc2cc(C(N)=O)cc(OCCCO)c21 [Compound 122] | < 1 |
| CCn1nc(C)cc1C(=O)Nc1nc2cc(CN(C)C)cnc2n1C/C=C/Cn1c(NC(=O)c2cc(C)nn2CC)nc2cc(C(N)=O)cc(OCCCO)c21 [Compound 125] | < 1 |
| CCn1nc(C)cc1C(=O)Nc1nc2cc(CNC(C)=O)cnc2n1C/C=C/Cn1c(NC(=O)c2cc(C)nn2CC)nc2cc(C(N)=O)cc(OCCCO)c21 [Compound 126] | < 1 |
| CCc1nc(C)oc1C(=O)Nc1nc2cc(CN)cc(OC)c2n1C/C=C/Cn1c(NC(=O)c2oc(C)nc2CC)nc2cc(C(N)=O)cc(OCCCO)c21 [Compound 128] | < 1 |
| CCn1nc(C)cc1C(=O)Nc1nc2cc(CN)cnc2n1C/C=C/Cn1c(NC(=O)c2cc(C)nn2CC)nc2cc(C(N)=O)cc(OC)c21 [Compound 129] | 1 to 50 |
| CCc1nc(C)oc1C(=O)Nc1nc2cc(CNC(C)=O)cc(OC)c2n1C/C=C/Cn1c(NC(=O)c2oc(C)nc2CC)nc2cc(C(N)=O)cc(OCCCO)c21 [Compound 130] | 1 to 50 |
| CCc1nc(C)oc1C(=O)Nc1nc2cc(NC(C)=O)cc(OC)c2n1C/C=C/Cn1c(NC(=O)c2oc(C)nc2CC)nc2cc(C(N)=O)cc(OCCCO)c21 [Compound 131] | 1 to 50 |
| CCc1nc(C)oc1C(=O)Nc1nc2cc(CN(C)C)cc(OC)c2n1C/C=C/Cn1c(NC(=O)c2oc(C)nc2CC)nc2cc(C(N)=O)cc(OCCCO)c21 [Compound 133] | 1 to 50 |
| CCc1nc(C)oc1C(=O)Nc1nc2cc(N)cc(OC)c2n1C/C=C/Cn1c(NC(=O)c2oc(C)nc2CC)nc2cc(C(N)=O)cc(OCCCO)c21 [Compound 135] | 1 to 50 |
| CCc1nc(C)oc1C(=O)Nc1nc2cc(C(N)=O)cc(OC)c2n1C/C=C/Cn1c(NC(=O)c2cnc(C)o2)nc2cc(C(N)=O)cc(OCCCO)c21 [Compound 136] | ≥ 50 |
| CCn1nc(C)cc1C(=O)Nc1nc2cc(CNC(C)=O)cnc2n1C/C=C/Cn1c(NC(=O)c2cc(C)nn2CC)nc2cc(C(N)=O)cc(OC)c21 [Compound 137] | ≥ 50 |
| CCn1nc(C)cc1C(=O)/N=c1\sc2cc(C(N)=O)cnc2n1C/C=C/Cn1c(NC(=O)c2cc(C)nn2CC)nc2cc(C(N)=O)cc(OCCCC(=O)O)c21 [Compound 140] | < 1 |
| CCc1nc(C)oc1C(=O)/N=c1\sc2cc(C(N)=O)cnc2n1C/C=C/Cn1c(NC(=O)c2sc(C)nc2CC)nc2cc(C(N)=O)cc(OCCCO)c21 [Compound 142] | < 1 |
| CCc1nc(C)oc1C(=O)Nc1nc2cc(C(N)=O)cnc2n1C/C=C/Cn1c(NC(=O)c2sc(C)nc2CC)nc2cc(C(N)=O)cc(OCCCO)c21 [Compound 143] | < 1 |
| CCc1nc(C)sc1C(=O)/N=c1\sc2cc(C(N)=O)cnc2n1C/C=C/Cn1c(NC(=O)c2sc(C)nc2CC)nc2cc(C(N)=O)cc(OCCCO)c21 [Compound 145] | ≥ 50 |
| CCn1nc(C)cc1C(=O)/N=c1\sc2cc(C(N)=O)cc(OCCCO)c2n1C/C=C/Cn1c(NC(=O)c2cc(C)nn2CC)nc2cc(C(N)=O)cnc21 [Compound 147] | 1 to 50 |
| CCc1nc(C)oc1C(=O)Nc1nc2cc(C(N)=O)cc(OC)c2n1C/C=C/Cn1c(NC(=O)c2sc(C)nc2CC)nc2cc(C(N)=O)cc(OCCCC(=O)O)c21 [Compound 149] | < 1 |
| CCc1nc(C)oc1C(=O)Nc1nc2cc(C(N)=O)cnc2n1C/C=C/Cn1c(NC(=O)c2sc(C)nc2CC)nc2cc(C(N)=O)cc(OCCCC(=O)O)c21 [Compound 151] | < 1 |
| CCc1nc(C)oc1C(=O)/N=c1\sc2cc(C(N)=O)cnc2n1C/C=C/Cn1c(NC(=O)c2oc(C)nc2CC)nc2cc(C(N)=O)cc(OCCCC(=O)O)c21 [Compound 155] | < 1 |
| CCc1nc(C)sc1C(=O)Nc1nc2cc(C(N)=O)cc(OC)c2n1C/C=C/Cn1c(NC(=O)c2sc(C)nc2CC)nc2cc(C(N)=O)cc(OCCCO)c21 [compound 10] | < 1 |
| COc1cc(C(N)=O)cc2nc(NC(=O)c3nc(C)oc3C)n(C/C=C/Cn3c(NC(=O)c4nc(C)oc4C)nc4cc(C(N)=O)cc(OCCCO)c43)c12 [compound 13] | ≥ 50 |
| COc1cc(C(N)=O)cc2nc(NC(=O)c3cc4ncccc4o3)n(C/C=C/Cn3c(NC(=O)c4cc5ncccc5o4)nc4cc(C(N)=O)cc(OCCCO)c43)c12 [compound 14] | ≥ 50 |
| COc1cc(C(N)=O)cc2nc(NC(=O)c3nccn3C(C)C)n(C/C=C/Cn3c(NC(=O)c4nccn4C(C)C)nc4cc(C(N)=O)cc(OCCCO)c43)c12 [compound 15] | ≥ 50 |

Second part, the compound after the results:

| EC50 [µM] | Structure (SMILES) |
| --- | --- |
| < 1 | CCc1nc(C)oc1C(=O)Nc1nc2cc(C(N)=O)cc(OCCCO)c2n1C/C=C/Cn1c(NC(=O)c2cc(C)nn2CC)nc2cc(C(N)=O)cnc21 [Compound 111] |
| < 1 | CCn1nc(C)cc1C(=O)Nc1nc2cc(C(N)=O)cnc2n1C/C=C/Cn1c(NC(=O)c2cc(C)nn2CC)nc2cc(C(N)=O)cc(OCCCC(=O)O)c21 [Compound 112] |
| 1 to 50 | CCn1nc(C)cc1C(=O)Nc1nc2cccnc2n1C/C=C/Cn1c(NC(=O)c2cc(C)nn2CC)nc2cc(C(N)=O)cc(OCCCO)c21 [Compound 114] |
| < 1 | CCn1nc(C)cc1C(=O)/N=c1\sc2cc(C(=O)OC)cc(OC)c2n1C/C=C/Cn1c(NC(=O)c2cc(C)nn2CC)nc2cc(C(N)=O)cc(OCCCO)c21 [Compound 115] |
| < 1 | CCn1nc(C)cc1C(=O)Nc1nc2cc(C(=O)OC)cnc2n1C/C=C/Cn1c(NC(=O)c2cc(C)nn2CC)nc2cc(C(N)=O)cc(OCCCO)c21 [Compound 123] |
| 1 to 50 | CCn1nc(C)cc1C(=O)Nc1nc2cc(CN(C)C)cnc2n1C/C=C/Cn1c(NC(=O)c2cc(C)nn2CC)nc2cc(C(N)=O)cc(OC)c21 [Compound 132] |
| < 1 | CCn1nc(C)cc1C(=O)Nc1nc2cc(N)cnc2n1C/C=C/Cn1c(NC(=O)c2cc(C)nn2CC)nc2cc(C(N)=O)cc(OC)c21 [Compound 134] |
| ≥ 50 | CCc1nc(C)oc1C(=O)Nc1nc2cc(C(N)=O)cc(OC)c2n1C/C=C/Cn1c(NC(=O)c2cnco2)nc2cc(C(N)=O)cc(OCCCO)c21 [Compound 138] |
| ≥ 50 | CCc1nc(C)oc1C(=O)Nc1nc2cc(C(N)=O)cc(O)c2n1C/C=C/Cn1c(NC(=O)c2oc(C)nc2CC)nc2cc(C(N)=O)cc(O)c21 [Compound 139] |
| 1 to 50 | CCc1nc(C)sc1C(=O)Nc1nc2cc(C(N)=O)cc(OC)c2n1C/C=C/Cn1c(NC(=O)c2sc(C)nc2CC)nc2cc(C(N)=O)cc(OCCCC(=O)O)c21 [Compound 141] |
| ≥ 50 | CCc1nc(C)sc1C(=O)Nc1nc2cc(C(N)=O)cnc2n1C/C=C/Cn1c(NC(=O)c2sc(C)nc2CC)nc2cc(C(N)=O)cc(OCCCO)c21 [Compound 144] |
| < 1 | CCc1nc(C)oc1C(=O)Nc1nc2cc(C(N)=O)cc(OCCCC(=O)O)c2n1C/C=C/Cn1/c(=N/C(=O)c2cc(C)nn2CC)sc2cc(C(N)=O)cc(OC)c21 [Compound 150] |
| 1 to 50 | CCc1nn(C)cc1C(=O)Nc1nc2cc(C(N)=O)cc(OC)c2n1C/C=C/Cn1c(NC(=O)c2cn(C)nc2CC)nc2cc(C(N)=O)cc(OCCCO)c21 [compound 11] |
| 1 to 50 | COc1cc(C(N)=O)cc2nc(NC(=O)c3cc(C)no3)n(C/C=C/Cn3c(NC(=O)c4cc(C)no4)nc4cc(C(N)=O)cc(OCCCO)c43)c12 [compound 12] |
